What was measured:
PAO = PAO activity in homogenates of NCI H157 cells after analogue treatment; format: cell-based, human; conditions: 10 μM, 24 h
Description: Determination of PAO Enzyme Activity. The cultured H157 cells with or without treatment of 10 μM N^1, N″-bis(ethyl)norspermine (BENSpm) were homogenized with a Dounce tissue homogenizer in ice-cold 0.083 M sodium borate buffer (pH 9.0). The PAO activity in homogenates was assayed by the method of Suzuki et al. […] The enzyme activity was stopped by the addition of 2.0 ml of 0.1 M NaOH solution. The fluorescence intensity was measured with excitation at 323 nm and emission at 426 nm. […] Protein content of the cellular homogenate was determined using the Bio-Rad protein assay kit (Bio-Rad). […] For determination of PAO activity in the product of the unlabeled TnT reaction, 10 μl of TnT reaction were used in the place of the homogenate. The PAO activity in the TnT reactions was represented by the fluorescent compound formed within the 1-h incubation. […] The concentrations chosen for each inhibitor were based on studies published previously (12).

NCI A549 cells [1] = experiment: Intracellular polyamine and analogue content of NCI A549 cells (HPLC); format: cell-based, human; conditions: NCI A549, 10 μM, 24 h
Description: (§1) Total cellular RNA was extracted from the lung cancer cell lines using Trizol reagent (Invitrogen) according to the manufacturer's protocol. For Northern blotting, total RNA (20 lg) was separated on a denaturing 1.5% agarose gel containing 6% formaldehyde and transferred to Zetaprobe membrane (Bio-Rad). Random primer- labeled PAOh1 cDNA was used as probe to estimate PAOh1/SMO expression. Blots were stripped and reprobed with an 18S ribosomal cDNA to provide a loading control. Analysis of polyamine content, SSAT and PAOh1/SMO activity. Intracellular polyamine concentrations were determined using the precolumn dansylation labeling, reverse-phase high-pressure liquid chromatography method as described by Kabra et al. using 1,7-diaminoheptane as an internal standard. Polyamine concentrations are reported as nanomoles per milligram protein for each sample, where lysate protein content was measured by the method of Bradford. SSAT activity of cellular extracts was measured as previously described. […] The PAOh1/SMO assays were performed in the presence of 1.0 mM pargyline and 0.1 mM semicarbizide as inhibitors of monoamine oxidase (MAO) and diamine oxidase (DAO), respectively.

NCI A549 cells [2] = experiment: MTS cell growth analysis of NCI A549 cells with or without MDL 72,527; format: cell-based, human; conditions: NCI A549, 96 h, 10 μM analogue with 250 μM MDL 72,527
Description: (§2) Cell Culture and Analysis of Growth Inhibition of Human Lung Cancer Cell Lines The non-small-cell cancer lines NCI A549 (adenocarcinoma), NCI H157 (squamous), NCI H727 (carcinoid), NCI H125 (adenocarcinoma) and U1752 (squamous), and the small-cell lung carcinoma lines NCI H82 and NCI H889 were cultured as we have previously described. Cells were treated for the times and with the concentrations of specific agents as indicated in the Results. For cell growth analysis in the presence of the PAOh1/SMO inhibitor MDL 72,527, the MTS dye reduction assay CellTiter 96 system from Promega was used according to the supplier's protocol. In these experiments, NCI A549 cells were seeded at 5×10^3 cells/well in a 96-well microtiter plate and treated for 96 h with 10 μM of the indicated analogue in the presence or absence of 250 μM MDL 72,527.

PAOh1/SMO [3] = experiment: PAOh1/SMO activity in lysates of NCI A549 cells after analogue treatment; format: cell-based, human
Description: as §2, §1

SSAT = SSAT activity of NCI A549 cellular extracts; format: cell-based, human; conditions: NCI A549, 10 μM, 24 h; untreated 5 ± 0.1
Description: as §1

[4] = target: T1, purified recombinant human PAOh1/SMO (Homo sapiens, UniProt Q9NWM0); experiment: Oxidase activity of purified recombinant PAOh1/SMO, luminol chemiluminescence; format: biochemical; conditions: 250 μM of compound
T1 construct: A 1702 bp fragment of the PAOh1cDNA was produced by PCR; His tag (pET15b) (N); made in house; host or cells: Escherichia coli BL21(DE3)
Description: Expression and Purification of PAOh1/SMO. The pET15b/PAOh1/SMO plasmid was used to transform the BL21(DE3) strain of Escherichia coli (Novagen) and transformed cells were selected on LB agar with 50 μg/ml ampicillin. The expression of PAOh1/SMO protein was induced in LB medium by the addition of 1 mM IPTG for 3 h at 37 ° C. Cell lysates were prepared under denaturing conditions with 8M urea and PAOh1/SMO protein was purified from the lysate by Ni-NTA resin according to the manufacturer's protocol (Qiagen, Valencia, Calif.). The resulting denatured protein was renatured in buffers containing decreasing concentrations of urea (5M urea, 4 h; 2.5M urea, 4 h; 1M urea, 12 h; and 0M urea, 12 h) and 50 mM Tris-HCl, pH 7.5, 250 mM NaCl, 0.1 mM EDTA, 1 mM DTT, and 0.2 μM flavin adenine dinucleotide (FAD).
Determination of PAO enzyme activity. PAO activity of the purified PAOh1/SMO was assayed using a modi.cation of the chemiluminesence analysis reported by Fernandez et al. and Rogers, et al.. Briefly, luminol-dependent chemiluminescence was determined using a Monolight 3010 luminometer with two reagent injectors. Luminol was prepared as a 100 mM stock solution in DMSO and diluted to 100 μM with H2O, immediately prior to use. Purified PAOh1/SMO was assayed in a 100 mM glycine buffer, pH 8.0, 5 ηmol luminol, 20 μg horseradish peroxidase, and the polyamine substrate as indicated. All reagents with the exception of the polyamine substrate were combined and incubated for 2 min at 37 ° C., then the tube was transferred to the luminometer, substrate was added, and the resulting chemiluminescence was integrated over 20 s. The integral values are calibrated against standards containing known concentrations of H2O2 and the activities are expressed as pmols H2O2/mg protein/min. Where indicated, inhibitors were added at the specified concentrations prior to the addition of substrate. Km and Vmax values for the purified enzyme with the indicated substrate were estimated using Lineweaver-Burk transformation of the Michaelis-Menten kinetic equation.

PAO message = experiment: Northern blot of PAO mRNA in NCI H157 cells after analogue treatment; format: cell-based, human; conditions: 10 μM, 24 h
Description: RNA Purification and Northern Blot Assay. Total cellular RNA from the NCI H157 cell line was extracted using Trizol total RNA reagent according to the protocol from the manufacturer. Total RNA (20 μg) was separated on a denaturing 1.5% agarose gel containing 6% formaldehyde, transferred to Zetaprobe membrane (Bio-Rad), and hybridized with a random primer-labeled pPAOh1 cDNA as the probe. Blots were washed and reprobed with an 18S ribosomal cDNA probe as a loading control.

PAOh1/SMO [5] = experiment: PAOh1/SMO activity and mRNA in small-cell lung cancer lines NCI H82 and NCI H889 after BENSpm; format: cell-based, human; conditions: two small-cell lung cancer lines, 10 μM, 24 h
Description: as §2, with “In these experiments, NCI A549 cells were seeded at 5×10^3 cells/well in a 96-well microtiter plate and treated for 96 h with 10 μM of the indicated analogue in the presence or absence of 250 μM MDL 72,527.” left out
Total cellular RNA was extracted from the lung cancer cell lines using Trizol reagent (Invitrogen) according to the manufacturer's protocol. […] Intracellular polyamine concentrations were determined using the precolumn dansylation labeling, reverse-phase high-pressure liquid chromatography method as described by Kabra et al. using 1,7-diaminoheptane as an internal standard. Polyamine concentrations are reported as nanomoles per milligram protein for each sample, where lysate protein content was measured by the method of Bradford. SSAT activity of cellular extracts was measured as previously described. […]

T1 sequence (Q9NWM0 whole entry, the tested form may be a part): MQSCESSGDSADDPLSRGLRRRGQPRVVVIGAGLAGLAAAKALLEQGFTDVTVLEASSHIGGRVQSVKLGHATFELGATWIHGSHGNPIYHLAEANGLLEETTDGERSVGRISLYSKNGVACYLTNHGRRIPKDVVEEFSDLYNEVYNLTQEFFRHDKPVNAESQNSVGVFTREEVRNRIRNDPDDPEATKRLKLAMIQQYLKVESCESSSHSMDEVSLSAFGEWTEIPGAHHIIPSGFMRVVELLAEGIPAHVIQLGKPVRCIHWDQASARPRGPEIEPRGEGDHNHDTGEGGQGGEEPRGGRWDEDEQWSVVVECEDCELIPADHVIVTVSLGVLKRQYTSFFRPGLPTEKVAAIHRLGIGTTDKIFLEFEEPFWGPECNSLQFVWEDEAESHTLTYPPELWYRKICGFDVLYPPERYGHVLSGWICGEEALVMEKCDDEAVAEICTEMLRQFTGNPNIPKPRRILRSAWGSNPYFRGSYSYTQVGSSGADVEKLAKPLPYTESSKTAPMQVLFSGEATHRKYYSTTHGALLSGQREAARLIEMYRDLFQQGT

fold induction of PAOh1/SMO activity (PAOh1/SMO [3]; NCI A549, 10 μM, 24 h, 250 μM spermine as substrate): about fivefold
Compound: CCNCCCNCCCNCCCNCC [BENSpm, N^1,N^11-bis(ethyl)norspermine]
increase in PAO activity (PAO): > 3 fold
Polyamine: Putrescine (NCI A549 cells [1]; untreated 2.1 ± 0.7): <0.05 nmol/mg protein
Polyamine: Spermine (NCI A549 cells [1]; untreated 9.9 ± 1.2): 1.2 ± 0.3 nmol/mg protein
Polyamine: Spermidine (NCI A549 cells [1]; untreated 26.9 ± 1.2): 1.2 ± 0.8 nmol/mg protein
sensitivity of cell growth to analogue in the presence of the PAOh1/SMO inhibitor (NCI A549 cells [2]): clear decrease in sensitivity
fold increase of PAOh1/SMO activity (PAOh1/SMO [3]; NCI A549, 10 μM, 12 h): approximately threefold
PAOh1/SMO activity (PAOh1/SMO [3]; NCI A549, 10 μM, 24 h, untreated 6,390 ± 2,070): 16,100 ± 780 pmol H2O2/mg/h
induction of PAOh1/SMO activity (PAOh1/SMO [3]; NCI A549, 24 h exposure to 10 μM of each analogue): significant induction
concentration of maximal induction of PAOh1/SMO (PAOh1/SMO [3]; NCI A549, increasing concentrations, 24 h): 5 µM
SSAT activity (SSAT): 5590 ± 517.7 pmol N^1-acetylspermidine/mg p
ability to serve as substrate (oxidation by purified PAOh1/SMO) [4]: none of the analogues examined were found to be oxidized
increase in PAO message (PAO message): ~5 fold
increase in PAOh1/SMO activity (PAOh1/SMO [5]): no observed increase
increase in PAOh1/SMO mRNA (PAOh1/SMO [5]): no observed increase

From patent US20040229241A1, “Cloned mammalian polyamine oxidase” (priority 2001, published 2004)
